The test system of data set [1] is Puccinia recondita f. sp. tritici. Description: Test B: test solution sprayed on wheat seedlings, inoculated next day with Puccinia recondita f. sp. tritici (wheat leaf rust); disease rating (100 = 100% disease control, 0 = no control; dash = not tested). It counts as in vivo. From the text: The resulting test suspensions were then used in Tests A-F. The test solution was sprayed to the point of run-off on wheat seedlings. […] A rating of 100 indicates 100% disease control and a rating of 0 indicates no disease control (relative to the controls). A dash (—) indicates the compound was not tested.

Data set [2] relates to Blumeria graminis f. sp. tritici. Description: Test C: test suspension sprayed on wheat seedlings, inoculated next day with Blumeria graminis f. sp. tritici (wheat powdery mildew); visual disease rating (100 = 100% disease control, 0 = no control; dash = not tested). It counts as in vivo. In a few lines: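 Wheat seedlings were sprayed to run-off with test suspension, then dusted next day with Blumeria graminis f. sp. tritici spores. After 8 days at 20 °C in a growth chamber, disease was rated visually as percent control relative to untreated controls.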

The test system of the next data set is Alternaria solani. As to the kind of experiment: Test F: test suspension sprayed on tomato seedlings, inoculated next day with Alternaria solani (tomato early blight); visual disease rating (100 = 100% disease control, 0 = no control; dash = not tested). It counts as in vivo. The method, boiled down: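 Tomato seedlings sprayed to run-off with test suspension, inoculated next day with A. solani spores, held saturated at 27° C. for 48 h, then 20° C. for 3 days. Disease visually rated as % control relative to untreated controls.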

In a further data set the test system is Phakopsora pachyrhizi. Description: Test D: test solution sprayed on soybean seedlings, inoculated next day with Phakopsora pachyrhizi (Asian soybean rust); visual disease rating (100 = 100% disease control, 0 = no control; dash = not tested). It counts as in vivo. In a few lines: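 Compounds predissolved in acetone (3% of final volume), suspended at ppm concentrations in 50/50 acetone/water with 250 ppm PEG400, sprayed to run-off on soybean seedlings. Inoculated next day with spores, 24 h saturated atmosphere at 22 °C, then 8 days growth chamber at 22 °C; visual rating, 100 = full control.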

Another data set concerns Botrytis cinerea. Description: Test E: test suspension sprayed on tomato seedlings, inoculated next day with Botrytis cinerea (tomato Botrytis); visual disease rating (100 = 100% disease control, 0 = no control; dash = not tested). It counts as in vivo. The method, boiled down:
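Tomato seedlings were sprayed to run-off and inoculated next day with Botrytis cinerea spores. They were held 48 h at 20° C in saturated humidity, then 3 days at 24° C. Disease control was rated visually against controls (100 = full, 0 = none).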

The subject of the next data set is Zymoseptoria tritici. Description: Test A: test solution sprayed on wheat seedlings, inoculated next day with Zymoseptoria tritici (wheat leaf blotch); disease rating (100 = 100% disease control, 0 = no control; dash = not tested). It counts as in vivo. In a few lines: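 Wheat seedlings sprayed to run-off with test solution, inoculated next day with Z. tritici spores, held 48 h at 24° C in saturated atmosphere, then 17 days at 20° C before rating. Scores are % disease control relative to controls (100 = full control, 0 = none).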

For `COc1cc(OC)cc(C2=NN(C)C(=O)CC2c2c(F)cccc2F)c1` (stereo not drawn) [Compound 39, 5-(2,6-difluorophenyl)-6-(3,5-dimethoxyphenyl)-4,5-dihydro-2-methyl-3(2H)-pyridazinone], the melting point (commonly the temperature, or range, at which the solid turns liquid) lay in the range of 139 to 142 °C. The pest or weed control – broadly, how far the test organism was held down – at 250 ppm in data set [1] (250 ppm) was determined as 86%. In data set [2] (250 ppm), the pest or weed control at 250 ppm came to 69%. The molecule further had a pest or weed control at 250 ppm in the data set with Alternaria solani (250 ppm) of 0%. In the data set on Phakopsora pachyrhizi (250 ppm), this molecule yielded a pest or weed control at 250 ppm of 0%. This molecule also gave a pest or weed control at 250 ppm with Botrytis cinerea (250 ppm) of 99%. Also, the pest or weed control at 250 ppm in the data set on Zymoseptoria tritici (250 ppm) was 98%.

In turn, `Cc1c(-c2ccc(F)cc2Cl)c(-c2ccc(F)cc2Cl)nn(C)c1=O` [Compound 44, 5,6-bis(2-chloro-4-fluorophenyl)-2,4-dimethyl-3(2H)-pyridazinone] displayed a melting point of 126 to 129 °C. For the same molecule, the pest or weed control at 50 ppm in data set [1] is 100%. In addition, the pest or weed control at 50 ppm in data set [2] was found to be 100%. The same molecule registered a pest or weed control at 50 ppm in the data set with Alternaria solani of 100%. This molecule came in with a pest or weed control at 50 ppm with Phakopsora pachyrhizi of 100%. In the data set with Botrytis cinerea, this molecule gave a pest or weed control at 50 ppm of 93%. In the data set on Zymoseptoria tritici, this molecule gave a pest or weed control at 50 ppm of 100%.

Turning to `COc1ccc(Cl)c(-c2nn(C)c(=O)c(Cl)c2-c2c(F)cccc2F)c1` [Compound 57, 4-chloro-6-(2-chloro-5-methoxyphenyl)-5-(2,6-difluorophenyl)-2-methyl-3(2H)-pyridazinone], the melting point fell in the range of 134 to 137 °C. For the same molecule, in data set [1], the pest or weed control at 50 ppm turned out to be 100%. Besides, the pest or weed control at 50 ppm in data set [2] stood at 99%. Besides, the pest or weed control at 50 ppm in the data set on Alternaria solani was found to be 100%. The pest or weed control at 50 ppm in the data set with Phakopsora pachyrhizi was determined as 99%. Moreover, the pest or weed control at 50 ppm in the data set on Botrytis cinerea came out at 99%. The same molecule displayed a pest or weed control at 50 ppm in the data set with Zymoseptoria tritici of 100%.

Molecule `COc1cc(OC)c(Cl)c(-c2nn(C)c(=O)c(Cl)c2-c2ccc(F)cc2Cl)c1` [Compound 58, 4-chloro-6-(2-chloro-3,5-dimethoxyphenyl)-5-(2-chloro-4-fluorophenyl)-2-methyl-3(2H)-pyridazinone] registered a melting point of 85 to 90 °C. For the same molecule, the pest or weed control at 50 ppm in data set [1] was 100%. Moreover, the pest or weed control at 50 ppm in data set [2] is 100%. The molecule further registered a pest or weed control at 50 ppm in the data set with Alternaria solani of 100%. In the data set with Phakopsora pachyrhizi, the pest or weed control at 50 ppm was 100%. In the data set on Botrytis cinerea, this molecule had a pest or weed control at 50 ppm of 99%. In the data set on Zymoseptoria tritici, this molecule had a pest or weed control at 50 ppm of 100%.

On to `COc1cc(OC)c(Cl)c(-c2nn(C)c(=O)c(C)c2-c2ccc(F)cc2Cl)c1` [Compound 66, 6-(2-chloro-3,5-dimethoxyphenyl)-5-(2-chloro-4-fluorophenyl)-2,4-dimethyl-3(2H)-pyridazinone], for which the melting point lay in the range of 140 to 143 °C. For the same molecule, the pest or weed control at 50 ppm in data set [1] was 100%. This molecule showed a pest or weed control at 50 ppm in data set [2] of 100%. In the data set on Alternaria solani, this molecule came in with a pest or weed control at 50 ppm of 100%. In the data set on Phakopsora pachyrhizi, this molecule had a pest or weed control at 50 ppm of 100%. The pest or weed control at 50 ppm with Botrytis cinerea is 100%. In the data set on Zymoseptoria tritici, this molecule came in with a pest or weed control at 50 ppm of 100%.

For the molecule `COc1ccc(Cl)c(-c2nn(C)c(=O)c(C)c2-c2c(F)cccc2F)c1` [Compound 68, 6-(2-chloro-5-methoxyphenyl)-5-(2,6-difluorophenyl)-2,4-dimethyl-3(2H)-pyridazinone], the melting point was 135 to 138 °C. For the same molecule, in data set [1], the pest or weed control at 50 ppm came to 100%. This molecule also came in with a pest or weed control at 50 ppm in data set [2] of 100%. This molecule returned a pest or weed control at 50 ppm in the data set with Alternaria solani of 100%. Moreover, the pest or weed control at 50 ppm with Phakopsora pachyrhizi was 100%. The molecule also returned a pest or weed control at 50 ppm with Botrytis cinerea of 99%. In addition, the pest or weed control at 50 ppm in the data set with Zymoseptoria tritici was 100%.

As for `COc1cc(OC)c(Cl)c(-c2nn(C)c(=O)c(OC)c2-c2ccc(F)cc2Cl)c1` [Compound 80, 6-(2-chloro-3,5-dimethoxyphenyl)-5-(2-chloro-4-fluorophenyl)-4-methoxy-2-methyl-3(2H)-pyridazinone], the melting point fell in the range of 130 to 133 °C. In data set [1], this molecule came in with a pest or weed control at 50 ppm of 100%. The same molecule showed a pest or weed control at 50 ppm in data set [2] of 100%. The molecule also showed a pest or weed control at 50 ppm in the data set on Alternaria solani of 100%. Besides, the pest or weed control at 50 ppm with Phakopsora pachyrhizi stood at 100%. The pest or weed control at 50 ppm with Botrytis cinerea is 99%. In the data set on Zymoseptoria tritici, this molecule displayed a pest or weed control at 50 ppm of 100%.

On to `COc1ccc(Cl)c(-c2nn(C)c(=O)c(Cl)c2-c2ccc(F)cc2Cl)c1` [Compound 83, 4-chloro-5-(2-chloro-4-fluorophenyl)-6-(2-chloro-5-methoxyphenyl)-2-methyl-3(2H)-pyridazinone], for which the melting point was 165 to 168 °C. Moreover, the pest or weed control at 50 ppm in data set [1] was 100%. Also, in data set [2], the pest or weed control at 50 ppm amounted to 99%. The same molecule returned a pest or weed control at 50 ppm in the data set on Alternaria solani of 100%. This molecule also had a pest or weed control at 50 ppm in the data set with Phakopsora pachyrhizi of 100%. For the same molecule, in the data set with Botrytis cinerea, the pest or weed control at 50 ppm stood at 92%. In addition, the pest or weed control at 50 ppm in the data set on Zymoseptoria tritici worked out at 100%.

In turn, `COc1ccc(Cl)c(-c2nn(C)c(=O)c(C)c2-c2ccc(F)cc2Cl)c1` [Compound 102, 5-(2-chloro-4-fluorophenyl)-6-(2-chloro-5-methoxyphenyl)-2,4-dimethyl-3(2H)-pyridazinone] had a melting point of 149 to 150 °C. This molecule also had a pest or weed control at 50 ppm in data set [1] of 100%. Moreover, the pest or weed control at 50 ppm in data set [2] was 100%. In the data set on Alternaria solani, this molecule showed a pest or weed control at 50 ppm of 100%. Moreover, the pest or weed control at 50 ppm with Phakopsora pachyrhizi came to 100%. The pest or weed control at 50 ppm in the data set on Botrytis cinerea came to 98%. The pest or weed control at 50 ppm in the data set with Zymoseptoria tritici stood at 100%.

For the origin of these results see patent US20230095836A1, “SUBSTITUTED 5,6-DIPHENYL-3(2H)-PYRIDAZINONES FOR USE AS FUNGICIDES” (FMC Corporation, priority 2020, published 2023).
